Columns and labels:
[1] = system: HCV replication in Huh7_HBI10A cells containing a HCV-replicon; experiment: RHEPLISA assay, cell-based assay for measuring HCV replication (NS3 ELISA); parameters: species or system hepatitis C virus; conditions: at 40 μM
Protocol: A cell-based assay for measuring the HCV replication (RHEPLISA) was developed in a 96-well microplate format. The assay utilizes Huh-7 cellular clone (Huh7_HBI10A) containing a HCV-replicon and is based on the detection of the viral NS3 protein by ELISA. About 5000 Huh7_HBI10A cells (or Huh-7 cells as negative control), resuspended in 100 μL of complete DMEM were seeded into each well of a 96 well microtiter plate (Falcon sterile by Becton Dickinson). After 4 hours, 50 μL of an appropriate dissolution medium (e.g., DMEM) containing the compounds to test or DMSO (3%) were added, and incubated (37° C., 5% CO2) for 4 days. The medium was removed by inversion and the cells were fixed by addition of 200 μ/well of ice-cold isopropanol 100%. […]
When secondary antibody AP-conjugated was used, 100 μL of AP substrate (SIGMA 104 Phosphatase substrate tablets; i.e., one tablet in 5 ml of AP buffer: diethanolamine solution 10%, pH 9.6-9.8.) were added to each well, and the plate was read in a conventional ELISA plate reader set at 405-620 nm.
When peroxidase-conjugated secondary was used, 100 μL of TMB substrate (SIGMA) were added to each well, and the plate was incubated for 20′ in the dark. 50 μL of 0.5M H2SO4 were then added, and the plate was read in a conventional ELISA plate reader set at 450-620 nm.

Huh7_HBI10A cells = experiment: Cytotoxicity assay (SRB); type: cell-based, human; conditions: at 40 μM
Protocol: About 5000 Huh7_HBI10A cells, resuspended in 100 μL of complete DMEM were seeded into each well of a 96 well microtiter plate (Falcon sterile by Becton Dickinson) and incubated (37° C., 5% CO2) for 24 hours. The medium was removed and the cells were fixed by incubation with 50 μL of 50% TCA for 1 hour at 4° C., 200 μL of ice-cold isopropanol 100% for 20 minutes at 4° C., or 100 μL of 10% paraformaldehyde for 20 minutes at room temperature. The plate was washed with water when either TCA or paraformaldehyde was used to fix the cells and with PBS 1× when isopropanol was used to fix the cells. All washings were run 3 times. After drying the plate, 200 μL of SRB 1× solution (prepared fresh from a SRB solution 10×: 4% sulforhodamine B (Sigma) in 10% acetic acid) was added to each well and incubated for 30 minutes at room temperature. The SRB 1× solution was removed by inversion and the plate was washed in 1% acetic acid 3 times. To each well was added 200 μL of 10 mM Tris pH 10.5, the plate was shaken till the color of the solution in the wells was uniform, and the plate was read in a conventional ELISA plate reader set at 570 nm.

For `NC(=S)NN=Cc1ccccc1` [benzaldehyde thiosemicarbazone], the “anti-HCV activity in the RHEPLISA assay” value [1] was “no anti-HCV activity” and the cytotoxic inhibition (Huh7_HBI10A cells) was “no cytotoxic inhibition”.
